Assay results reported in US20220354834A1, “METHODS AND MATERIALS FOR TREATING NEUROTOXICITY” (Cavion, Inc., priority 2019, published 2022).

Key:
Format in all cases: in vivo, Wistar rat
[1] = system: hind paw mechanical allodynia (BTZ-induced CIPN); assay: CIPN-reversal study: Dynamic Aesthesiometer Test, mechanical threshold
Method: (§1) Wistar female rats (n=52) (Envigo, Correzzano, Italy) at 10-11 weeks of age were utilized. The study was divided into 2 phases of 4 weeks each. […] Body weight was measured periodically during phase 1 from baseline (day 1) to day 28. At baseline and conclusion of phase 1 (day 28), nerve conduction velocity (NCV) was performed on caudal and sciatic nerves and Dynamic Aesthesiometer Test (DAT) measured mechanical threshold (MT) of the hind paw. […] Body weight was measured periodically from baseline (day 28) to day 56 (termination). NCV and MT were measured in all 4 groups at baseline and on day 35 and 56. […] At termination, sciatic nerves were obtained for β-tubulin polymerization and skin samples were procured for intraepidermal nerve fiber (IENF) density and histopathology.
MT was assessed with the DAT device (Model 37450, Ugo Basile Biological Instruments, Comerio, Italy). After acclimation, a servo-controlled pointed metallic filament (0.5 mm diameter) was placed on plantar surface of the hind paw and exerted a progressive punctate pressure up to 50 grams within 20 seconds. The pressure elicited a voluntary hind paw withdrawal response that was recorded and represented MT index. MT was collected alternatively on each side every 2 minutes on 3 occasions to yield a mean value. Mean MT values represented maximum pressure (grams) tolerated by each rat. Exposure of each animal to mechanical stimulus was limited to 30 seconds.

[2] = system: caudal nerves (BTZ-induced CIPN); assay: CIPN-reversal study: caudal nerve conduction velocity
Method: as §1
NCV (meters/second) was obtained from caudal and sciatic nerves with an electromyography tool (Myto 2, ABN Neuro, Firenze, Italy). Caudal NCV was measured by placement of recording needle electrodes distally in the tail with stimulating needle electrodes 5 cm and 10 cm proximal to recording point. Peak latencies of potentials recorded at the 2 sites after nerve stimulation were determined and NCV was calculated. Sciatic NCV was determined by placement of needle recording electrodes near ankle bone and stimulating electrodes close to thigh. Peak latencies were recorded similar to caudal nerve and NCV was calculated. NCV was performed under standard conditions in a temperature-controlled facility (22±2° C.) and rats were under isoflurane anesthesia with monitoring of vital signs.

[3] = system: intraepidermal nerve fibers (BTZ-induced CIPN); assay: IENF density and histopathology of plantar glabrous skin; conditions: week 8
Method: as §1
At day 56, animals were euthanized by CO2 inhalation and tissue samples were procured from 4 rats per group. Right sciatic nerve was frozen in liquid nitrogen for β-tubulin polymerization assay and plantar glabrous skin samples were collected for IENF density.
Plantar glabrous skin samples (5 mm) from hind paws were fixed in 2% PLP (paraformaldehyde-lysine-sodium periodate) for 24 hours at 4° C. and cryoprotected overnight. Samples were serially cut with a cryostat to yield 20 μm sections. Three sections from each footpad were randomly selected and immunostained with rabbit polyclonal anti-protein gene product 9.5 (PGP 9.5; GeneTex, Irvine, Calif., USA) in combination with biotinylated anti-rabbit IgG and Vector SG substrate kit peroxidase (Vector Laboratories, Burlingame, Calif.) using a free-floating protocol. A blinded observer counted total number of immune-positive IENF in each section under light microscopy at high magnification with a microscope video camera. Individual fibers were counted that crossed dermal-epidermal interface. Secondary branches within epidermis were excluded. Length of epidermis was measured to generate linear density of IENF/millimeter as described elsewhere (Canta et al., 2016 Neurobiol Aging 45:136-148).

[4] = BTZ+ CX-8998 10 mg/kg vs BTZ+ CX-8998 30 mg/kg, P > 0.05 ns
[5] = CTRL vs BTZ+ CX-8998 3 mg/kg, P > 0.05 ns
[6] = CTRL vs BTZ+ CX-8998 10 mg/kg, P < 0.05 *
[7] = CTRL vs BTZ+ CX-8998 30 mg/kg, P > 0.05 ns
[8] = BTZ vs BTZ+ CX-8998 3 mg/kg, P > 0.05 ns
[9] = BTZ vs BTZ+ CX-8998 10 mg/kg, P > 0.05 ns
[10] = BTZ+ CX-8998 3 mg/kg vs BTZ+ CX-8998 10 mg/kg, P > 0.05 ns
[11] = BTZ+ CX-8998 3 mg/kg vs BTZ+ CX-8998 30 mg/kg, P > 0.05 ns
[12] = CTRL vs BTZ+ CX-8998 10 mg/kg, P > 0.05 ns

## CC(C)c1ccc(CC(=O)N[C@H](C)c2ccc(OCC(F)(F)F)cn2)cc1 [CX-8998, (R)-2-(4-Isopropylphenyl)-N-(1-(5-(2,2,2-Trifluoroethoxy)pyridin-2-yl)ethyl)acetamide]
[1]; [4]
  DYNAMIC TEST 8 WEEKS, Difference in rank sum (Dunn's Multiple Comparison Test): −3.188
[1]; [5]
  DYNAMIC TEST 5 WEEKS, Difference in rank sum (Dunn's Multiple Comparison Test): 3.250
  DYNAMIC TEST 8 WEEKS, Difference in rank sum (Dunn's Multiple Comparison Test): 7.563
[1]; [6]
  DYNAMIC TEST 5 WEEKS, Difference in rank sum (Dunn's Multiple Comparison Test): 16.50
  DYNAMIC TEST 8 WEEKS, Difference in rank sum (Dunn's Multiple Comparison Test): 16.69
[1]; [7]
  DYNAMIC TEST 5 WEEKS, Difference in rank sum (Dunn's Multiple Comparison Test): 10.56
  DYNAMIC TEST 8 WEEKS, Difference in rank sum (Dunn's Multiple Comparison Test): 13.50
[2]; [8]
  NCV OF CAUDAL NERVE (5 weeks), Difference in rank sum (Dunn's Multiple Comparison Test): −11.21
  NCV OF CAUDAL NERVE (8 weeks), Difference in rank sum (Dunn's Multiple Comparison Test): −11.55
[2]; BTZ vs BTZ+ CX-8998 10 mg/kg, P < 0.01 **
  NCV OF CAUDAL NERVE (8 weeks), Difference in rank sum (Dunn's Multiple Comparison Test): −22.36
[2]; [9]
  NCV OF CAUDAL NERVE (5 weeks), Difference in rank sum (Dunn's Multiple Comparison Test): −4.625
[2]; BTZ vs BTZ+ CX-8998 30 mg/kg, P < 0.001 ***
  NCV OF CAUDAL NERVE (8 weeks), Difference in rank sum (Dunn's Multiple Comparison Test): −30.42
[2]; BTZ vs BTZ+ CX-8998 30 mg/kg, P > 0.05 ns
  NCV OF CAUDAL NERVE (5 weeks), Difference in rank sum (Dunn's Multiple Comparison Test): −11.04
[2]; [10]
  NCV OF CAUDAL NERVE (5 weeks), Difference in rank sum (Dunn's Multiple Comparison Test): 6.583
  NCV OF CAUDAL NERVE (8 weeks), Difference in rank sum (Dunn's Multiple Comparison Test): −10.82
[2]; BTZ+ CX-8998 3 mg/kg vs BTZ+ CX-8998 30 mg/kg, P < 0.05 *
  NCV OF CAUDAL NERVE (8 weeks), Difference in rank sum (Dunn's Multiple Comparison Test): −18.87
[2]; [11]
  NCV OF CAUDAL NERVE (5 weeks), Difference in rank sum (Dunn's Multiple Comparison Test): 0.1667
[2]; [4]
  NCV OF CAUDAL NERVE (5 weeks), Difference in rank sum (Dunn's Multiple Comparison Test): −6.417
  NCV OF CAUDAL NERVE (8 weeks), Difference in rank sum (Dunn's Multiple Comparison Test): −8.053
[2]; CTRL vs BTZ+ CX-8998 3 mg/kg, P < 0.01 **
  NCV OF CAUDAL NERVE (8 weeks), Difference in rank sum (Dunn's Multiple Comparison Test): 25.45
[2]; [5]
  NCV OF CAUDAL NERVE (5 weeks), Difference in rank sum (Dunn's Multiple Comparison Test): 4.542
[2]; [12]
  NCV OF CAUDAL NERVE (5 weeks), Difference in rank sum (Dunn's Multiple Comparison Test): 11.13
  NCV OF CAUDAL NERVE (8 weeks), Difference in rank sum (Dunn's Multiple Comparison Test): 14.64
[2]; [7]
  NCV OF CAUDAL NERVE (5 weeks), Difference in rank sum (Dunn's Multiple Comparison Test): 4.708
  NCV OF CAUDAL NERVE (8 weeks), Difference in rank sum (Dunn's Multiple Comparison Test): 6.583
[3]; [8]
  IENF DENSITY, Difference in rank sum (Dunn's Multiple Comparison Test): −10.93
[3]; [9]
  IENF DENSITY, Difference in rank sum (Dunn's Multiple Comparison Test): −0.04167
[3]; BTZ vs BTZ+ CX-8998 30 mg/kg, P < 0.05 *
  IENF DENSITY, Difference in rank sum (Dunn's Multiple Comparison Test): −20.54
[3]; [10]
  IENF DENSITY, Difference in rank sum (Dunn's Multiple Comparison Test): 10.89
[3]; [11]
  IENF DENSITY, Difference in rank sum (Dunn's Multiple Comparison Test): −9.611
[3]; BTZ+ CX-8998 10 mg/kg vs BTZ+ CX-8998 30 mg/kg, P < 0.01 **
  IENF DENSITY, Difference in rank sum (Dunn's Multiple Comparison Test): −20.50
[3]; CTRL vs BTZ+ CX-8998 3 mg/kg, P < 0.05 *
  IENF DENSITY, Difference in rank sum (Dunn's Multiple Comparison Test): 18.06
[3]; CTRL vs BTZ+ CX-8998 10 mg/kg, P < 0.001 ***
  IENF DENSITY, Difference in rank sum (Dunn's Multiple Comparison Test): 28.94
[3]; [7]
  IENF DENSITY, Difference in rank sum (Dunn's Multiple Comparison Test): 8.444
